Results reported in patent US20250019350A1, “SYNTHESIS OF THE PROSTATE SPECIFIC MEMBRANE ANTIGEN (PSMA) RADIOLABELED INHIBITOR [18F]DCFPYL” (Progenics Pharmaceuticals, Inc, priority 2023, published 2025).

Key:
[1] = HPLC/UV (264 nm) chemical impurity assay; ascorbic acid related impurity; assay type: physicochemical; conditions: 5 mg/mL, pH 6 ascorbic acid solution with free 18F (129 mCi/mL)
Method: Analytical HPLC method was used. The method employs UV detection at 264 nm for chemical impurities, and an Eckert & Ziegler model B-FC-1000 gamma detector for radiochemical assays.
Since the peak has not been previously observed in preparations in the absence of ascorbic acid it is likely ascorbic acid related and was further investigated. A decayed sample from the lot produced was analyzed further and confirmed the presence of the peak, FIG. 35. […] The sample was assayed for chemical impurities at T=0, 4, 10 and 24 hours when held inverted at ambient conditions. […] The impurity only formed with radioactivity exposure but not when stored in light or dark at ambient conditions (see FIG. 37).

[2] = cited from earlier work
[3] = Retention/recovery of [19F]DCFPyL on the HLB solvent exchange cartridge as a function of pH (load, wash, product samples); assay type: physicochemical
Method: The goal of this study was to characterize the impact of pH on the retention of [^18F]DCFPyL on the HLB solvent exchange cartridge. […] The pH of one solution was adjusted to 2 and a second to 4 by adding 1N HCl. A third solution was used without adjusting its native pH of 7.2. Using a BD syringe, 10 mL of each solution was spiked with [^19F]DCFPyL (50 μg) by adding 0.5 mL of a 100 μg/mL stock solution. Each spiked solution was loaded onto a HLB cartridge at a rate of approximately 2 mL/min. […] The eluent from each HLB cartridge was individually collected and identified as the “wash solution.” Each HLB cartridge was then individually eluted with 1 mL of ethanol, the samples collected and are identified as the “product sample.” The load solution and wash solution samples were analyzed using a drug product chemical impurity assay after a 1 to 10 mL dilution with saline, while the ethanolic product samples were analyzed following a 0.5 to 10 dilution with saline.
The goal of this study was to characterize the impact of pH on the retention of ^18F-DCFPyL on the HLB solvent exchange cartridge. […] The pH of one solution was adjusted to 2 and a second to 4 by adding 1N HCl. A third solution was used without adjusting its native pH of 7.2. At this pH the solution will be mainly sodium ascorbate. Using a BD syringe, 10 mL of each solution was spiked with ^19F-DCFPyL (50 μg) by adding 0.5 mL of a 100 μg/mL stock solution. Each spiked solution was loaded onto an HLB cartridge at a rate of approximately 2 mL/min and the solution collected after the HLB column is identified as the load solution. […] Each HLB cartridge was then individually eluted with 1 mL of ethanol, the solution collected after the HLB column is identified as the product sample. The load solution and wash solution samples were analyzed using the drug product chemical impurity assay after a 1 to 10 mL dilution with saline, while the ethanolic product samples were analyzed following a 0.5 to 10 mL dilution with saline.

[4] = @ 10 hr; ascorbic acid at 10 mg/mL (Fawdry 2007); cited from earlier work
[5] = HLB pH 2 Product, first Ethanol elution
[6] = HLB pH 2 Product, second Ethanol elution
[7] = HLB pH 2 Product, third Ethanol elution

O=C1O[C@H]([C@@H](O)CO)C(O)=C1O [ascorbic acid]
4.6 min RT peak (HPLC UV) ([1]; T = 0 hours, ambient): not present | 4.6 min RT peak (HPLC UV), approximate concentration ([1]; T = 24 hours, relative response factor of 1 to [19F]-DCFPyL standard): ~1.75 µg/mL | pKa [2]: about 4.2

O=C(O)CC[C@H](NC(=O)N[C@@H](CCCCNC(=O)c1ccc(F)nc1)C(=O)O)C(=O)O [Lot 19F-DCFPyL]
retention by the HLB cartridge ([3]; 10 mg/mL ascorbic acid, pH 7.2): not meaningfully retained | 19F-DCFPyL recovered (%) ([3]; HLB Saline pH 7 Rinse): 0.0% | μg of 19F-DCFPyL recovered ([3]; HLB Saline pH 7 Rinse): Not Detected | 19F-DCFPyL recovered (%) ([3]; HLB pH 2 Load): 0.0% | μg of 19F-DCFPyL recovered ([3]; HLB pH 2 Load): Not Detected | 19F-DCFPyL recovered (%) [3, 5]: 69.5% | μg of 19F-DCFPyL recovered [3, 5]: 35.423 µg | 19F-DCFPyL recovered (%) [3, 6]: 21.5% | μg of 19F-DCFPyL recovered [3, 6]: 10.946 µg | 19F-DCFPyL recovered (%) [3, 7]: 7.1% | μg of 19F-DCFPyL recovered [3, 7]: 3.629 µg | 19F-DCFPyL recovered (%) ([3]; HLB pH 2 Rinse): 0.0% | μg of 19F-DCFPyL recovered ([3]; HLB pH 2 Rinse): Not Detected | 19F-DCFPyL recovered (%) ([3]; HLB pH 4 Load): 22.0% | μg of 19F-DCFPyL recovered ([3]; HLB pH 4 Load): 10.504 µg | 19F-DCFPyL recovered (%) ([3]; HLB pH 4 Product): 57.7% | μg of 19F-DCFPyL recovered ([3]; HLB pH 4 Product): 27.989 µg | 19F-DCFPyL recovered (%) ([3]; HLB pH 4 Rinse): 0.0% | μg of 19F-DCFPyL recovered ([3]; HLB pH 4 Rinse): Not Detected | 19F-DCFPyL recovered (%) ([3]; HLB pH 7 Load): 87.4% | μg of 19F-DCFPyL recovered ([3]; HLB pH 7 Load): 38.239 µg | 19F-DCFPyL recovered (%) ([3]; HLB pH 7 Product): 0.0% | μg of 19F-DCFPyL recovered ([3]; HLB pH 7 Product): Not Detected | 19F-DCFPyL in the load or wash samples ([3]; pH 2): not detected | μg of 19F-DCFPyL recovered ([3]; pH 2 Control): 50.976 µg | 19F-DCFPyL in the product sample, % of the total amount recovered from all samples ([3]; pH 4): approximately 68% | 19F-DCFPyL recovered in the load sample ([3]; pH 4): approximately 31% | 19F-DCFPyL recovered in the load sample (mass) ([3]; pH 4): < 1 µg | μg of 19F-DCFPyL recovered ([3]; pH 4 Control): 47.665 µg | μg of 19F-DCFPyL recovered ([3]; pH 7 Control): 43.759 µg | 19F-DCFPyL recovered in the wash samples ([3]; pH 7.2): 3.8 µg/mL

OC[C@H]1O[C@@H](O)[C@H]([18F])[C@@H](O)[C@@H]1O [FDG]
de-fluorination [4]: less than 2%
